Measured values: PubChem BioAssay (NCI)
Values joined by “and” are separate entries in the source; they are usually repeats but may differ in a detail not shown here. Equal values may be shown once.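 Test compounds were applied to cells in 96-well plates for 48 hours at 5 doses. GI50 marks 50% less growth. Definition used: TGI = concentration required for complete inhibition of growth.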

How the values were obtained:
Test in all cases: growth of human tumour cells (NCI), 48 h
A498 renal = system: A498 renal
OVCAR-3 ovarian = system: OVCAR-3 ovarian
KM12 colon = system: KM12 colon
SN12C renal = system: SN12C renal
SK-OV-3 ovarian = system: SK-OV-3 ovarian
EKVX NSCLC = system: EKVX NSCLC
HL-60(TB) leukemia = system: HL-60(TB) leukemia
HOP-92 NSCLC = system: HOP-92 NSCLC
NCI-H522 lung = system: NCI-H522 lung
SK-MEL-2 melanoma = system: SK-MEL-2 melanoma

Compound	GI50 (A498 renal)	TGI (A498 renal)	GI50 (OVCAR-3 ovarian)	TGI (OVCAR-3 ovarian)	GI50 (KM12 colon)	TGI (KM12 colon)	GI50 (SN12C renal)	TGI (SN12C renal)	GI50 (SK-OV-3 ovarian)	TGI (SK-OV-3 ovarian)	GI50 (EKVX NSCLC)	TGI (EKVX NSCLC)	GI50 (HL-60(TB) leukemia)	TGI (HL-60(TB) leukemia)	GI50 (HOP-92 NSCLC)	TGI (HOP-92 NSCLC)	GI50 (NCI-H522 lung)	TGI (NCI-H522 lung)	GI50 (SK-MEL-2 melanoma)	TGI (SK-MEL-2 melanoma)
COc1ccc(Cc2nc3cc(OC)c(OC)cc3c(=O)[nH]2)cc1	18.6 µM	66.9 µM	12.5 µM	> 66.1 µM	2.68 µM	10.4 µM	11.2 µM	> 100 µM	88.5 µM	> 100 µM	17.3 µM	> 92.5 µM	1.78 µM	4.8 µM	21.9 µM	> 100 µM	14.5 µM	> 100 µM		
CN(C)c1ccc(O[Si](Oc2ccc(N(C)C)cc2)(Oc2ccc(N(C)C)cc2)Oc2ccc(N(C)C)cc2)cc1		> 100 µM		> 100 µM		> 100 µM		> 100 µM		> 100 µM		> 100 µM		> 100 µM		> 100 µM		> 100 µM		
Nc1nc(=S)c2[nH]cnc2[nH]1		> 23.8 µM and 93.7 µM and 12.6 µM	0.446 µM and 1.44 µM and 1.1 µM	6.32 µM and 7.68 µM and 9.64 µM	0.816 µM and 3.25 µM and 3.14 µM			> 100 µM and 171 µM and > 250 µM	0.293 µM and 0.784 µM	8.82 µM and 17.5 µM and > 86 µM		> 100 µM and 143 µM and > 250 µM	0.894 µM	9.38 µM and 17.5 µM and 2.37 µM		4.44 µM and 26.8 µM and 32.4 µM	0.418 µM and 2.07 µM and 1 µM	3.04 µM and 6.04 µM and 7.26 µM	0.741 µM and 1.7 µM and 3.7 µM	
COC(=O)c1ccc2[nH]c(O)c(C(=Nc3ccc(N(C)C(=O)CN4CCN(C)CC4)cc3)c3ccccc3)c2c1	1.91 µM	5.39 µM	1.41 µM	3.23 µM	0.0353 µM	5.52 µM	0.267 µM	11.6 µM	0.444 µM	5 µM	2.98 µM	16.2 µM	0.835 µM	3.12 µM	9.78 µM	39.7 µM	1.49 µM	4.41 µM	1.17 µM	3.54 µM
NC(N)=N/N=C(/c1ccccc1)c1ccccc1F	2.28 µM	9.44 µM	2.1 µM	7.55 µM	1.14 µM	12.9 µM	5.98 µM	31.3 µM	4.82 µM	37.9 µM	6.89 µM	53 µM	2.96 µM	> 100 µM	18.3 µM	> 81.5 µM	3.12 µM	14.7 µM	12.2 µM	36.7 µM
CN(C)c1ccc(N=C2C=CC(=C(C#N)C#N)c3ccccc32)cc1		1.37 µM		1.46 µM		12 µM		15.9 µM		6.53 µM		19.1 µM		0.391 µM		1.06 µM		0.305 µM		6.7 µM
CC1(C)CC[C@]2(C(=O)O)CC[C@]3(C)C(=CC[C@@H]4[C@@]5(C)C/C(=C/c6ccco6)C(=O)C(C)(C)[C@@H]5CC[C@]43C)[C@@H]2C1	6.14 µM	45.6 µM	2.9 µM	9.61 µM	2.77 µM	11.6 µM	3.37 µM	19.2 µM	4.22 µM	79.4 µM	3.62 µM	31.1 µM	2.55 µM	6.84 µM	2.69 µM	12.2 µM	3.22 µM	24.3 µM	2.99 µM	11.4 µM
O=c1nc2[nH]c3c(-c4n[nH]c(=O)[nH]c4=O)cccc3c2n[nH]1	> 100 µM	> 100 µM	> 100 µM	> 100 µM	> 100 µM	> 100 µM	> 100 µM	> 100 µM	> 100 µM	> 100 µM	> 100 µM	> 100 µM	> 100 µM	> 100 µM	78.1 µM	> 100 µM	> 100 µM	> 100 µM	> 100 µM	> 100 µM
COC(=O)[C@H](Cc1cn(C)cn1)NC(=O)[C@@H](NC(=O)Nc1cc(C(F)(F)F)cc(C(F)(F)F)c1)C(C)C	> 10 µM	> 10 µM	1.86 µM	3.48 µM	1.98 µM	4.22 µM	1.88 µM	3.97 µM	> 10 µM	> 10 µM			> 10 µM	> 10 µM	5.48 µM	> 10 µM	1.71 µM	3.66 µM	> 10 µM	> 10 µM
CC(=O)[O-].[Mn+3].[O-]c1ccc(Cl)cc1C=NCCN=Cc1cc(Cl)ccc1[O-]	> 100 µM	> 100 µM	37.6 µM	> 100 µM	> 100 µM	> 100 µM	> 100 µM	> 100 µM	> 100 µM	> 100 µM			50.7 µM	> 100 µM			> 100 µM	> 100 µM	> 100 µM	> 100 µM
NNC(=O)N/N=C1\CN(c2ccc(Cl)cc2Cl)C(=O)C(=O)C1c1nc2ccccc2o1 (centres undefined)		> 100 µM		> 100 µM		> 100 µM		> 100 µM		> 100 µM		> 100 µM				> 100 µM		> 100 µM		> 100 µM
O=c1[nH]c2ccc([N+](=O)[O-])c(Cl)c2c2ccccc12		80.2 µM		17.6 µM		4.52 µM		14.4 µM		4.86 µM		19.9 µM		16.6 µM				11.7 µM		24.7 µM
O=C(OC[C@@H]1CO1)c1cccc2c(=O)c3ccccc3[nH]c12	1.76 µM	3.56 µM	0.276 µM	1.14 µM	0.245 µM	0.771 µM	0.196 µM	1.41 µM			0.856 µM	3.72 µM			0.444 µM	5.02 µM	0.421 µM	2.2 µM	0.251 µM	0.595 µM
O=C1CNN=C(Cn2nc(-c3ccccc3)c3ccccc3c2=O)N1		> 100 µM		> 100 µM		> 100 µM		> 100 µM		> 100 µM				> 100 µM		> 100 µM		> 100 µM		> 100 µM
COc1ccc(-c2cc(-c3ccco3)c(C#N)c(=O)[nH]2)cc1		> 100 µM		53.8 µM		> 100 µM		> 100 µM		72.2 µM		> 100 µM		> 100 µM		> 100 µM		54 µM		
COC(=O)c1sc(=NC(=S)N2CCCCC2)sc1C(=O)OC		> 100 µM		34.2 µM		> 100 µM		> 100 µM		> 100 µM				> 100 µM						> 100 µM
